The nature of data set [1]: mn = molality of the nth substance listed, in mol/kg. The conditions noted are these: 100 kPa, Liquid, m2 = 0; for speed of sound: Frequency=3 MHz, Sing-around technique in a fixed-path interferometer; for mass density: Vibrating tube method.
For data set [2] the following is noted: 100 kPa, Liquid; for speed of sound: Frequency=3 MHz, Sing-around technique in a fixed-path interferometer; for mass density: Vibrating tube method.

Molecules are shown by their SMILES. Numbers after ± are expanded uncertainties.

As a reminder, the speed of sound is how fast a sound wave travels through the sample. The mass density is mass per unit of volume. On to `C[S+](C)[O-]` [dimethyl sulfoxide] + CC[N+]1(C)CCOCC1.O=S(=O)([N-]S(=O)(=O)C(F)(F)F)C(F)(F)F, for which the speed of sound is on record as 1484.6 ± 1.2 m/s in data set [1] (298.15 K); 1467.7 ± 1.2 m/s in data set [1] (303.15 K); 1450.8 ± 1.2 m/s in data set [1] (308.15 K); 1434.1 ± 1.2 m/s in data set [1] (313.15 K); 1417.5 ± 1.2 m/s in data set [1] (318.15 K). Also, the mass density in data set [1] (298.15 K) is listed as 1095.28 ± 0.26 kg/m3; in data set [1] (303.15 K), 1090.26 ± 0.26 kg/m3; in data set [1] (308.15 K), 1085.24 ± 0.26 kg/m3; in data set [1] (313.15 K), 1080.22 ± 0.26 kg/m3; in data set [1] (318.15 K), 1075.21 ± 0.26 kg/m3.
For the molecule `C[S+](C)[O-]` [dimethyl sulfoxide] + CCCCCCCC[N+]1(C)CCOCC1.O=S(=O)([N-]S(=O)(=O)C(F)(F)F)C(F)(F)F, the speed of sound in data set [1] (298.15 K) is 1484.6 ± 1.2 m/s; in data set [1] (303.15 K), 1467.7 ± 1.2 m/s; in data set [1] (308.15 K) it was 1450.8 ± 1.2 m/s; in data set [1] (313.15 K) it was 1434.1 ± 1.2 m/s; in data set [1] (318.15 K), 1417.5 ± 1.2 m/s. Further, the mass density in data set [1] (298.15 K) was 1095.28 ± 0.21 kg/m3; in data set [1] (303.15 K) it was 1090.26 ± 0.21 kg/m3; in data set [1] (308.15 K), 1085.24 ± 0.21 kg/m3; in data set [1] (313.15 K), 1080.22 ± 0.21 kg/m3; in data set [1] (318.15 K), 1075.21 ± 0.21 kg/m3.
Turning to `C[S+](C)[O-]` [dimethyl sulfoxide] + CCCC[N+]1(C)CCOCC1.O=S(=O)([N-]S(=O)(=O)C(F)(F)F)C(F)(F)F, the speed of sound is listed as 1484.6 ± 1.2 m/s in data set [1] (298.15 K); 1467.7 ± 1.2 m/s in data set [1] (303.15 K); 1450.8 ± 1.2 m/s in data set [1] (308.15 K); 1434.1 ± 1.2 m/s in data set [1] (313.15 K); 1417.5 ± 1.2 m/s in data set [1] (318.15 K). For the same molecule, the mass density in data set [1] (298.15 K) stood at 1095.28 ± 0.24 kg/m3; in data set [1] (303.15 K), 1090.26 ± 0.24 kg/m3; in data set [1] (308.15 K) it was 1085.24 ± 0.24 kg/m3; in data set [1] (313.15 K), 1080.22 ± 0.24 kg/m3; in data set [1] (318.15 K) it was 1075.21 ± 0.24 kg/m3.
Take `C[S+](C)[O-]` [dimethyl sulfoxide]: the speed of sound is 1484.6 ± 1.2 m/s in data set [2] (298.15 K); 1467.7 ± 1.2 m/s in data set [2] (303.15 K); 1450.8 ± 1.2 m/s in data set [2] (308.15 K); 1434.1 ± 1.2 m/s in data set [2] (313.15 K); 1417.5 ± 1.2 m/s in data set [2] (318.15 K). For the same molecule, the mass density was 1095.28 ± 0.21 kg/m3 in data set [2] (298.15 K); 1090.26 ± 0.26 kg/m3 in data set [2] (303.15 K); 1085.24 ± 0.24 kg/m3 in data set [2] (308.15 K); 1080.22 ± 0.24 kg/m3 in data set [2] (313.15 K); 1075.21 ± 0.26 kg/m3 in data set [2] (318.15 K).

The values are drawn from the NIST ThermoML archive (doi:10.1016/j.jct.2015.04.006).
